Experiment [1] has as its target T1, Tyrosinase (Agaricus bisporus, UniProt C7FF04). The experiment in a line: Tyrosinase assay (inhibitory activity, L-tyrosine substrate, product detected at 475 nm). It counts as biochemical. Also on record: purchased Sigma–Aldrich T3824. Conditions: for Inhibitory Ratio at 50 μM: 50 μM compound. The procedure: (§1) To assess the inhibitory effect of compounds on tyrosinase, 130 μL tyrosinase in 0.05 mM phosphate buffer (pH 6.8) was aliquoted into 96-well plates, and 20 μL of each compound at concentrations ranging from 0.5 to 0.0075 mM was added. Next, 50 μL 1.2 mM L-tyrosine in phosphate buffer was diluted to calculate the inhibitory activity. Finally, 50 μL 10–0.62 mM l-tyrosine in buffer was added to analyze the initial velocity (v0). Twenty minutes after starting the reaction, the amount of product was detected at 475 nm. The inhibitory activity was calculated using the following equation: Inhibitory activity rate (%) = [(ΔC − ΔS)/ΔC] × 100, where C and S are the intensity of control and inhibitor after 20 min, respectively.
Target sequence in this assay (C7FF04 1-392 limits assumed): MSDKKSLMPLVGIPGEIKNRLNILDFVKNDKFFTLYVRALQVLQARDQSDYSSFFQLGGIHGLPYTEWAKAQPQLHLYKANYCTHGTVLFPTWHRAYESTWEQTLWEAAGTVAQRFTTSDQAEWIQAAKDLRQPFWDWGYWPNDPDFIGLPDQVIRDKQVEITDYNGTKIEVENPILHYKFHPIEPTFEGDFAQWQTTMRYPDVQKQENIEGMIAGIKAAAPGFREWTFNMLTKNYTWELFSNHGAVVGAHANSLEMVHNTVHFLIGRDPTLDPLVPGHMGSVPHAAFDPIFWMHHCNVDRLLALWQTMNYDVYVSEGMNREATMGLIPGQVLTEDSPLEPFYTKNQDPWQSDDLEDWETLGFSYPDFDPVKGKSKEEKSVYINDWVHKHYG

Experiment [2] addresses T1, Tyrosinase. The experiment in a line: Enzyme kinetics on tyrosinase (Lineweaver–Burk and Dixon plots). The note with it: various substrate concentrations. It counts as biochemical. The procedure:
The v0 was calculated at ~10% of the substrate conversion rate by tyrosinase. The results are shown as Lineweaver–Burk plots (Figure 2A–C and Table 1).
as §1
Target sequence in this assay (C7FF04 2-392): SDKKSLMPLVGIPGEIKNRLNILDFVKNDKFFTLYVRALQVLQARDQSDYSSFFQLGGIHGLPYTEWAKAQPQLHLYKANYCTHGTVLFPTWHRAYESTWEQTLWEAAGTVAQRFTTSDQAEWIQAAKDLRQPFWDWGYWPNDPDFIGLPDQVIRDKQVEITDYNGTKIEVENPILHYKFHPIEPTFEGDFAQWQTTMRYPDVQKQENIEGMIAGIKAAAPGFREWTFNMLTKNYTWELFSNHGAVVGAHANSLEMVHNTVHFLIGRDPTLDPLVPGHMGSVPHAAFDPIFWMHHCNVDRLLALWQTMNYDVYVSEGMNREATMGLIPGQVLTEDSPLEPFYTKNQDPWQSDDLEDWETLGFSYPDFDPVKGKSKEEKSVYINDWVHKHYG

Setting [3] is: Mean ± SEM, tested three times, read-out: IC50.

Where two headings read alike, the source gives them in different places.

`OC[C@H]1O[C@@H](Oc2cc3c(O)cc(O)cc3[o+]c2-c2ccc(O)c(O)c2)[C@H](O)[C@@H](O)[C@@H]1O` [Compound 4, kuromanin (cyanidin 3-O-glucoside)]: the “Inhibitory Ratio at 50 μM” value at Tyrosinase [1] (tested three times) was −1.9 ± 40.0%.
On to `Oc1cc(O)c2ccc(-c3ccc(O)c(O)c3)[o+]c2c1` [Compound 1, luteolinidin], for which, at Tyrosinase [2], the “Binding Mode” value was “Competitive inhibitor”. At Tyrosinase [1], the half-inhibitory concentration (IC50) was 3.7 ± 0.8 µM and the “Inhibitory activity on tyrosinase (in words)” value (“Inhibitory activity” for short) is reported as “most potent inhibitors”.
Consider `OC[C@H]1O[C@@H](Oc2cc3c(O)cc(O)cc3[o+]c2-c2cc(O)c(O)c(O)c2)[C@H](O)[C@@H](O)[C@@H]1O` [Compound 5, delphinidin 3-O-glucoside], for which the “Inhibitory Ratio at 50 μM” value on Tyrosinase [1] (tested three times) is reported as 47.5 ± 3.2%.
Take `OC[C@H]1O[C@@H](Oc2cc3c(O)cc(O)cc3[o+]c2-c2cc(O)c(O)c(O)c2)[C@H](O)[C@@H](O)[C@H]1O` [Compound 3, delphinidin 3-O-galactoside]: the “Binding Mode” value on Tyrosinase [2] is listed as “Competitive inhibitor”. Besides, the “Inhibitory activity” value at Tyrosinase [1] is “moderate inhibitory activity”. In addition, the “Inhibitory Ratio at 50 μM” value on Tyrosinase [1] (tested three times) is 55.2 ± 0.9%. Also, on Tyrosinase [1] (setting [3]), the concentration for half-maximal inhibition (IC50) came to 41.3 ± 3.2 µM.
Regarding `OC[C@H]1O[C@@H](Oc2cc3c(O)cc(O)cc3[o+]c2-c2ccc(O)cc2)[C@H](O)[C@@H](O)[C@@H]1O` [Compound 6, callistephin (pelargonidin 3-O-glucoside)], on Tyrosinase [1] (tested three times), the “Inhibitory Ratio at 50 μM” value amounted to 6.5 ± 2.1%.
For `COc1cc(-c2[o+]c3cc(O)cc(O)c3cc2O[C@@H]2O[C@H](CO)[C@@H](O)[C@H](O)[C@H]2O)cc(O)c1O` [Compound 2, petunidin 3-O-glucoside], the “Binding Mode” value on Tyrosinase [2] is listed as “Competitive inhibitor”. Moreover, on Tyrosinase [1], the “Inhibitory activity” value was “most potent inhibitors”. Further, the “Inhibitory Ratio at 50 μM” value on Tyrosinase [1] (tested three times) is 69.2 ± 1.0%. Further, on Tyrosinase [1] (setting [3]), the IC50 was found to be 10.3 ± 1 µM.

The record behind these values is paper PMC9458148 (Molecules, 2022).
